For one assay, the target named is α-synuclein (Homo sapiens, UniProt P37840). The assay is described as follows: ThT assay, aggregation of α-synuclein. It counts as biochemical. The text has this: (§1) A compound that inhibits, or that may inhibit, amyloidogenesis is combined with a bacterial amyloid initiator (e.g., E. coli CsgA), or a host-derived amyloidogenic protein (e.g., α-synuclein) and an amyloid precursor in the presence of Thioflavin T (ThT). Separately, as a control, bacterial amyloid initiator, amyloid precursor, and Thioflavin T are combined in the absence of the suspected amyloidogenesis inhibitor. Thioflavin T fluorescence is monitored over time. […] The Tht assay was used with a cell-free assay to assess the effects of compounds on aggregation of α-synuclein of E. coli CsgA, and to assess the effects of compounds on aggregation of α-synuclein seeded by E. coli CsgA.

The target of assay [1] is α-synuclein seeded by E. coli CsgA (Homo sapiens, UniProt P37840). In kind it is biochemical. The settings on record: ThT fluorescence, cell-free.
Excerpt: as §1

For another assay, the target named is E. coli CsgA (Escherichia coli, UniProt P28307). Kind of assay: ThT assay, aggregation of E. coli CsgA. It counts as biochemical. The note with it: ThT fluorescence, cell-free. From the text: A compound that inhibits, or that may inhibit, amyloidogenesis is combined with a bacterial amyloid initiator (e.g., E. coli CsgA), or a host-derived amyloidogenic protein (e.g., α-synuclein) and an amyloid precursor in the presence of Thioflavin T (ThT). Separately, as a control, bacterial amyloid initiator, amyloid precursor, and Thioflavin T are combined in the absence of the suspected amyloidogenesis inhibitor. Thioflavin T fluorescence is monitored over time. A reduction in the rate of increase in Thioflavin T fluorescence, and/or a reduction in the maximum level of Thioflavin T fluorescence in the sample containing the suspected inhibitor, relative to the control sample, confirms that the suspected amyloidogenesis inhibitor is in fact functioning to inhibit amyloid formation. The Tht assay was used with a cell-free assay to assess the effects of compounds on aggregation of α-synuclein of E. coli CsgA, and to assess the effects of compounds on aggregation of α-synuclein seeded by E. coli CsgA. For a detailed description of the ThT assay, see, e.g., International Publication No. WO/2018/213204, which is incorporated by reference herein in its entirety.
Sequence of E. coli CsgA (P28307 21-151): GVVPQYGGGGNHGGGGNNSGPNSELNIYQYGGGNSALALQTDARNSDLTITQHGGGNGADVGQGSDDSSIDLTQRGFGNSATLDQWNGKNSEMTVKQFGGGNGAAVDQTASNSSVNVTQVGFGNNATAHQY

The subject of assay [2] is bacterial curli levels in the gastrointestinal tract. Kind of assay: Murine models, curli content in feces. In kind it is in vivo. The note with it: SPF mice or germ free mice mono-colonized with E. coli MC4100; oral. Here is the method:
The following two mouse models were used to evaluate the in vivo activity of test articles (i.e., sustained release solid dosage forms described herein).
Model 1 was performed in selected strains of specific pathogen free (SPF) mice (e.g. Swiss Webster) that carry curli producing bacteria as part of their native gastrointestinal microbiota.
Model 2 was performed in germ free mice that have no native microbiota. In these mice administration, by oral gavage, of a single strain of curli-producing bacteria (e.g. E. coli MC4100) led to stable bacterial colonization of their gastrointestinal tract. […]
To evaluate the ability of test articles to modify bacterial curli levels in the gastrointestinal tract mice, from either Model 1 or 2, were treated with compound typically administered once daily via oral gavage. […] Where appropriate, test articles were evaluated at multiple dose levels, or at greater or lower dosing frequency. […]
To enable the quantitative assessment of test article impact on gastrointestinal curli levels, fecal samples were collected from these treated mice. […]
Assessment of curli content in feces was achieved through one of four approaches: • 1. Quantitative measurement of messenger RNA (mRNA) levels for csgA using a specific qRT-PCR approach. • 2. Quantitative measurement of curli protein levels using fluorescent dyes that bind to amyloid proteins (e.g. ThT, Congo Red, FSB). • 3. […]

For a further assay, the system named is αSyn amyloid formation. The note with it: mice; cited from earlier work.

Each structure is given as a SMILES string. Like-named read-outs stand apart in the source and are kept apart here.

`C=CCc1ccc(OC)c(OC)c1` [4-allyl-1,2-dimethoxy-benzene, 4-allyl-1,2-dimethoxy-benzene]: the “Inhibition of Aggregation αSyn” value at α-synuclein is “− ((−) is between −10% to 10% inhibition)”. The “Inhibition of Aggregation CsgA-seeded αSyn” value in assay [1] is listed as “++ ((++) is between 30% to 60% inhibition)”. For the same compound, on E. coli CsgA, the “Inhibition of Aggregation CsgA” value is given as “− − ((− −) is less than −10% inhibition)”.
For the compound `Brc1cccc(-c2cc(-c3ccc4c(c3)OCO4)n[nH]2)c1` [Anle 138b], at E. coli CsgA, the “Inhibition of Aggregation CsgA” value is reported as “− ((−) is between −10% to 10% inhibition)”.
For `O=C(O[C@@H]1Cc2c(O)cc(O)cc2O[C@@H]1c1cc(O)c(O)c(O)c1)c1cc(O)c(O)c(O)c1` [EGCG, epigallocatechin gallate], the “in vivo activity on fecal curli content” value in assay [2] was “reduce fecal levels of csgA mRNA, CsgA protein, and curli protein”. The “Inhibition of Aggregation αSyn” value at α-synuclein (ThT fluorescence, cell-free) is listed as “+++ ((+++) is greater than 60% inhibition)”. Further, in assay [1], the “Inhibition of Aggregation CsgA-seeded αSyn” value is on record as “+++ ((+++) is greater than 60% inhibition)”. Also, in the assay on αSyn amyloid formation, the motor scores entry was “improved motor scores” and the “αSyn amyloid formation in vivo” value is on record as “inhibits or reduces αSyn amyloid formation in mice”. The “Inhibition of Aggregation CsgA” value on E. coli CsgA was “++ ((++) is between 30% to 60% inhibition)”.
Turning to `CC(Cc1ccc(O)c(O)c1)C(C)Cc1ccc(O)c(O)c1` (centres unmarked) [NDGA], the “Inhibition of Aggregation αSyn” value on α-synuclein (ThT fluorescence, cell-free) was “++ ((++) is between 30% to 60% inhibition)”. Also, the “Inhibition of Aggregation CsgA-seeded αSyn” value in assay [1] is recorded as “++ ((++) is between 30% to 60% inhibition)”. Besides, the “Inhibition of Aggregation CsgA” value on E. coli CsgA is given as “+ ((+) is between 10% to 30% inhibition)”.
For the compound `O=c1cc(-c2ccc(O)cc2)oc2cc(O)cc(O)c12` [apigenin], on α-synuclein (ThT fluorescence, cell-free), the “Inhibition of Aggregation αSyn” value is “++ ((++) is between 30% to 60% inhibition)”.
Consider `Cc1ccc(C(C)C)cc1O` [carvacrol], for which, at α-synuclein (ThT fluorescence, cell-free), the “Inhibition of Aggregation αSyn” value is “− ((−) is between −10% to 10% inhibition)”. In addition, the “Inhibition of Aggregation CsgA-seeded αSyn” value in assay [1] was “− ((−) is between −10% to 10% inhibition)”. For the same compound, the “Inhibition of Aggregation CsgA” value on E. coli CsgA is on record as “− − ((− −) is less than −10% inhibition)”.
As to `COc1cc(/C=C/C(=O)/C=C(O)/C=C/c2ccc(O)c(OC)c2)ccc1O` [curcumin], the “Inhibition of Aggregation αSyn” value at α-synuclein (ThT fluorescence, cell-free) is reported as “+++ ((+++) is greater than 60% inhibition)”. Further, in assay [1], the “Inhibition of Aggregation CsgA-seeded αSyn” value was “+++ ((+++) is greater than 60% inhibition)”.
For `C=CCc1ccc(O)c(OC)c1` [eugenol], the “Inhibition of Aggregation αSyn” value at α-synuclein (ThT fluorescence, cell-free) was “− ((−) is between −10% to 10% inhibition)”. For the same compound, the “Inhibition of Aggregation CsgA-seeded αSyn” value in assay [1] is “++ ((++) is between 30% to 60% inhibition)”. On E. coli CsgA, the “Inhibition of Aggregation CsgA” value is “− ((−) is between −10% to 10% inhibition)”.
Consider `O=C(O)c1cc(O)c(O)c(O)c1` [gallic acid], for which the “Inhibition of Aggregation αSyn” value at α-synuclein (ThT fluorescence, cell-free) is recorded as “+++ ((+++) is greater than 60% inhibition)”. Further, in assay [1], the “Inhibition of Aggregation CsgA-seeded αSyn” value is “+++ ((+++) is greater than 60% inhibition)”. The “Inhibition of Aggregation CsgA” value on E. coli CsgA is reported as “+++ ((+++) is greater than 60% inhibition)”.
`O=c1c(-c2ccc(O)cc2)coc2cc(O)cc(O)c12` [genistein]: on α-synuclein (ThT fluorescence, cell-free), the “Inhibition of Aggregation αSyn” value was “++ ((++) is between 30% to 60% inhibition)”.
Take `COc1ccccc1O` [guaiacol]: the “Inhibition of Aggregation αSyn” value at α-synuclein (ThT fluorescence, cell-free) is reported as “− ((−) is between −10% to 10% inhibition)”. Moreover, in assay [1], the “Inhibition of Aggregation CsgA-seeded αSyn” value was “++ ((++) is between 30% to 60% inhibition)”. Further, the “Inhibition of Aggregation CsgA” value at E. coli CsgA is “− ((−) is between −10% to 10% inhibition)”.
Consider `C/C=C/c1ccc(O)c(OC)c1` [isoeugenol], for which, at α-synuclein (ThT fluorescence, cell-free), the “Inhibition of Aggregation αSyn” value is recorded as “− ((−) is between −10% to 10% inhibition)”. The “Inhibition of Aggregation CsgA-seeded αSyn” value in assay [1] is “++ ((++) is between 30% to 60% inhibition)”. Further, the “Inhibition of Aggregation CsgA” value on E. coli CsgA is given as “− ((−) is between −10% to 10% inhibition)”.
For `CCCCCCCCCCCCOC(=O)c1cc(O)c(O)c(O)c1` [lauryl gallate], at α-synuclein (ThT fluorescence, cell-free), the “Inhibition of Aggregation αSyn” value was “++ ((++) is between 30% to 60% inhibition)”. The “Inhibition of Aggregation CsgA-seeded αSyn” value in assay [1] was “+ ((+) is between 10% to 30% inhibition)”. Moreover, the “Inhibition of Aggregation CsgA” value at E. coli CsgA was “− ((−) is between −10% to 10% inhibition)”.
In the case of `COc1cc(O)ccc1O` [methoxy- hydroquinone, methoxy-hydroquinone], at α-synuclein (ThT fluorescence, cell-free), the “Inhibition of Aggregation αSyn” value was “+++ ((+++) is greater than 60% inhibition)”. Further, in assay [1], the “Inhibition of Aggregation CsgA-seeded αSyn” value is given as “+++ ((+++) is greater than 60% inhibition)”. Moreover, on E. coli CsgA, the “Inhibition of Aggregation CsgA” value is “++ ((++) is between 30% to 60% inhibition)”.
As for `O=c1c(O)c(-c2ccc(O)cc2O)oc2cc(O)cc(O)c12` [morin], on α-synuclein (ThT fluorescence, cell-free), the “Inhibition of Aggregation αSyn” value is listed as “+++ ((+++) is greater than 60% inhibition)”. For the same compound, in assay [1], the “Inhibition of Aggregation CsgA-seeded αSyn” value is “+++ ((+++) is greater than 60% inhibition)”. In addition, the “Inhibition of Aggregation CsgA” value on E. coli CsgA is given as “+++ ((+++) is greater than 60% inhibition)”.
For the compound `O=C(CCc1ccc(O)cc1)c1c(O)cc(O)cc1O` [phloretin], the “Inhibition of Aggregation αSyn” value at α-synuclein (ThT fluorescence, cell-free) was “++ ((++) is between 30% to 60% inhibition)”. In addition, the “Inhibition of Aggregation CsgA-seeded αSyn” value in assay [1] is given as “+ ((+) is between 10% to 30% inhibition)”. Further, the “Inhibition of Aggregation CsgA” value at E. coli CsgA is “+ ((+) is between 10% to 30% inhibition)”.
For `O=c1c(O)c(-c2ccc(O)c(O)c2)oc2cc(O)cc(O)c12` [quercetin], the “Inhibition of Aggregation αSyn” value at α-synuclein (ThT fluorescence, cell-free) was “+++ ((+++) is greater than 60% inhibition)”. Further, the “Inhibition of Aggregation CsgA” value on E. coli CsgA is on record as “++ ((++) is between 30% to 60% inhibition)”.
The matching figures for `Oc1ccc(/C=C/c2cc(O)cc(O)c2)cc1` [resveratrol]: “+++ ((+++) is greater than 60% inhibition)” and “+++ ((+++) is greater than 60% inhibition)”.
On to `O=C(/C=C/c1ccc(O)c(O)c1)O[C@H](Cc1ccc(O)c(O)c1)C(=O)O` [rosmarinic acid], for which the “Inhibition of Aggregation αSyn” value at α-synuclein (ThT fluorescence, cell-free) is “+++ ((+++) is greater than 60% inhibition)”. Moreover, on E. coli CsgA, the “Inhibition of Aggregation CsgA” value is “++ ((++) is between 30% to 60% inhibition)”.
`Cc1ccc(C(C)C)c(O)c1` [thymol]: the “Inhibition of Aggregation αSyn” value at α-synuclein (ThT fluorescence, cell-free) is reported as “− − ((− −) is less than −10% inhibition)”. In addition, in assay [1], the “Inhibition of Aggregation CsgA-seeded αSyn” value is “− ((−) is between −10% to 10% inhibition)”. Further, the “Inhibition of Aggregation CsgA” value on E. coli CsgA was “− ((−) is between −10% to 10% inhibition)”.
